Data as given in US9243037B2, “Gramicidin a mutants that function as antibiotics with improved solubility and reduced toxicity” (Trustees of Boston College, priority 2011, dated 2016).
Marks after values point to notes of the source that are not given here.

Key:
[1] = system: human red blood cells (hRBCs); test: Haemoglobin release from human red blood cells; type: cell-based
Method: Fresh human red blood cells (hRBCs) were centrifuged at 3500 rpm and washed with PBS buffer until the supernatant was clear. The hRBCs were then resuspended and diluted to a final concentration of 1% (v/v) in PBS and used immediately. 15 μL of serial dilution (2-fold) of peptides in DMSO or DMSO alone as a negative control were added to 1.5 mL of hRBCs in PBS. The resulting mixture was gently shaken to mix well and incubated at 37° C. for 1 hr, followed by centrifugation at 3500 rpm for 10 min using tabletop centrifuge. Aliquots (50 μL) of the supernatant (in triplicates) were transferred into a sterile 96-well plate containing 50 μL of H2O in each well. Release of hemoglobin was monitored at 415 nm using a microtiter plate reader. Percentage hemolysis was calculated using percentage hemolysis=100·(A415, peptide-A415,DMSO)/(A415, complete hemolysis-A415, DMSO), where complete hemolysis is achieved by mixing hRBCs with 1% TritonX-100.

physchem = type: physicochemical
Method: Peptide solubility in 10 mM HEPES buffer with 1% DMSO was measured by monitoring tryptophan absorbance. A concentrated (6.0-8.0 mM) peptide stock solution in DMSO was diluted 100 times (5 μL of the stock into 500 jtl of 10 mM HEPES buffer, pH 7.0). The mixture was sonicated for 30 mins and then subject to centrifugation (14,000 rpm, 10 mins) to remove possible precipitate. The supernatant (400 μL) was transferred to a quartz cuvette and the peptide concentration was determined by tryptophan absorbance at 280 nm (ε=22760 M−1 cm-1). The UV/Vis spectra of the supernatant can be seen in FIG. 1 and FIG. 5.

[2] = system: Bacillus subtilis (ATCC 663)
[3] = system: Staphylococcus aureus (ATCC 6538)
[4] = system: Streptococcus pyogenes (ATCC 19615)
FIG. 2 = test: FIG. 2
Method: Table printed on a drawing sheet, FIG. 2
Water solubility of gA variants is determined by Trp absorbance at 280 nm and summarized in the inserted table. Buffer used: 10 mM HEPES containing 1% DMSO. The solubility of gA-WT was obtained from reference.
First reader's note: Saturation concentration (water solubility); the gA-WT cell carries its own unit (nM), and the marker [a] is not explained on the sheet.

bacteria = test: Antibacterial activity, strain not singled out; conditions: in words
Method: Minimal Inhibitory Concentrations (MICs) were measured against Gram-negative Escherichia coli (BL21) and Gram-positive Bacillus subtilis (ATCC 663), Staphylococcus aureus (ATCC 6538), Streptococcus pyogenes (ATCC 19615) using the broth microdilution method.[2] Specifically, bacteria from a single colony were grown overnight in LB broth at 37° C. with agitation. An aliquot was taken and diluted (1:50 for E. coli, 1:20 for B. subtilis, 1:200 for S. aureus, 1: 10 for S. pyogenes) in fresh broth and cultured for another ˜3 hours until the cells reach mid-logarithmic phase (OD590-0.6). The cells were diluted to a concentration of ˜5×10^5 Colony Forming Units/ml (CFU/ml) and the bacteria suspension (200 μL) was added to each well of a sterile 96-well plate. Serial diluted (2-fold) peptides in DMSO (2 μL) were added in triplicates. The plates were shaken for 30 seconds to mix the peptide solution well with the broth, and then incubated at 37° C. overnight before the absorbance at 590 nm was monitored using a microtiter plate reader (SPECTRAMAX M5, Molecular Devices, Sunnyvale, Calif.). The viability of the bacteria was normalized as % survival=(ODpep,bac−ODbroth only)/(ODDMSO, bac-ODbroth only)×100%.

CC(C)C[C@@H](NC(=O)[C@H](C)NC(=O)CNC(=O)[C@@H](NC=O)C(C)C)C(=O)N[C@@H](C)C(=O)N[C@@H](C(=O)N[C@H](C(=O)N[C@@H](C(=O)N[C@@H](Cc1c[nH]c2ccccc12)C(=O)N[C@H](CCCNC(=N)N)C(=O)N[C@@H](Cc1c[nH]c2ccccc12)C(=O)N[C@H](CCCNC(=N)N)C(=O)N[C@@H](Cc1c[nH]c2ccccc12)C(=O)N[C@H](CCCNC(=N)N)C(=O)N[C@@H](Cc1c[nH]c2ccccc12)C(=O)NCCO)C(C)C)C(C)C)C(C)C (racemic) [gA-6, formyl-V-G-A-dL-A-dV-V-dV-W-dR-W-dR-W-dR-W-NHCH2CH2OH]
HC50 (50% haemoglobin leakage relative to 1% TritonX-100) [1]: 20 µM | water solubility, fold higher than wild-type Gramicidin A (physchem): ~800 fold | MICs B. Subtilius ([2]; ATCC 663): 2.5~5 μM | MIC relative to wild-type Gramicidin A ([2]; B. subtilis): equivalent to or ˜2-fold higher | MIC relative to wild-type Gramicidin A ([3]; S. Aureus): much higher MIC | MICs S. Aureus ([3]; Table 2, standard micro-dilution): >10 ^[e] μM | MICs S. Pyogenes ([4]; ATCC 19615): 1.25 µM | MIC relative to wild-type Gramicidin A ([4]; S. Pyogenes): equivalent to or ˜2-fold higher | SAT. CONC/μM (FIG. 2): 43 µM | antibacterial activity / MIC (bacteria): low μM potency
